# Source: patent US4606856A, “[Des-1-amino, 8-glycine]calcitonin” (priority 1985, dated 1986)
# Tests used:
# [1] = tested on: serum calcium concentration; conditions: standard salmon calcitonin used in the assay; cited from earlier work
# [2] = tested on: serum calcium concentration; experiment: Biological assay of calcitonin analogs in vivo: reduction of serum calcium concentration, 2×2 parallel line assay; conditions: rats, subcutaneous injection, serum calcium 1 hour later, compared with synthetic salmon calcitonin standard
# Protocol: Rats were divided into four groups of seven animals, and each group was assigned at random to a dose of standard or test solution. Low and high doses were chosen from the linear portion of the dose-response curve. For the salmon calcitonin standard, the values were 0.7 and 2.1 ng. peptide/100 g. body weight (BW). This dose approximates 3 and 9 MU/100 g. BW. Peptides were given by subcutaneous injection (0.2 ml/100 g. BW) and blood was withdrawn 1 hour later for serum calcium determination. Sera are processed and analyzed within two hours of collection. Results were analyzed within two hours of collection. Results were analyzed by a 2×2 parallel line assay [Gaddum, J. H., J. Pharm.
Substance,"biological potency of the standard, independently determined [1]",biological potency [2] [IU/mg]
Salmon calcitonin [standard salmon calcitonin],"greater than 4,000 IU/mg",–
"[Des-1-Amino, 8-Glycine]salmon calcitonin [[Des-1-Amino, Gly^8]SCT]",–,4750
